# According to US20120225054A1, “USE OF LEGUME EXTRACTS FOR INDUCING AND ENHANCING AUTOPHAGY AND APOPTOSIS AND FOR PREVENTING AND/OR TREATING CANCERS” (HERBAL BON BIOTECH INC., priority 2011, published 2012):
# What was measured:
# [1] = system: human HCC Hep 3B cells; test: Flow cytometric analysis of apoptotic cells with autophagy inhibitor, Hep 3B; format: cell-based; settings: 10 mM 3-MA pretreatment 2 h, SC-1 265 μg/ml
# Protocol: (§1) Cells (2×10^5) grown in 6-well plates were pretreated with or without 10 mM of autophagy inhibitor 3-methyladenine (3-MA; Sigma, St. Louis, Mo.) for 2 h prior to the addition of SC-1 (265 μg/ml). The cells were harvested, centrifuged at 800g for 10 min at 4° C., and resuspended in HBS containing 40 μg/ml of propidium iodide and […] RNase A for 30 min at 37° C. in the dark. Measurement of apoptotic cells was performed using a FACScan flow cytometer (Becton Dickison, Mountain View, Calif., USA).
# To confirm the importance of autophagy in the proceeding of apoptosis, autophagy inhibitor 3-MA was added to the cell culture and the relative portion of apoptotic cells was analyzed by flow cytometry. […] In FIG. 5B, it inhibited the fermented soybean extracts-induced apoptosis of Hep 3B cells approximately 42% at 48 h and 60% at 72 h. Therefore, it would not be surprised that the induction of apoptosis was observed only in combination with autophagy in tumors obtained from the mice received the fermented soybean extracts for a relatively long period of time (FIGS. 4A and B).
# [2] = system: murine hepatoma ML-1 cells; test: Flow cytometric analysis of apoptotic cells with autophagy inhibitor, ML-1; format: cell-based; settings: 10 mM 3-MA pretreatment 2 h, SC-1 265 μg/ml
# Protocol: Murine ML-1 cells obtained from Dr. Huan-Yao Lei (Department of Microbiology and Immunology, Medical College, National Cheng Kung University, Tainan, Taiwan) were cultured in complete Dulbecco's modified Eagle medium (DMEM; GIBCO BRL, Grand Island, N.Y.) containing 10% fetal bovine serum (GIBCO BRL), 2 mM glutamine (Sigma, St. Louis, Mo.), 100 U/ml penicillin (Sigma), and 100 μg/ml streptomycin (Sigma) at 37° C. in a 5% CO2 humidified atmosphere.
# as §1
# To confirm the importance of autophagy in the proceeding of apoptosis, autophagy inhibitor 3-MA was added to the cell culture and the relative portion of apoptotic cells was analyzed by flow cytometry. […] In FIG. 5B, it inhibited the fermented soybean extracts-induced apoptosis of Hep 3B cells approximately 42% at 48 h and 60% at 72 h. […]
smiles,measurement,setting,value
"Cn1cnc(N)c2ncnc1-2 [3-MA, 3-methyladenine]",inhibition of fermented soybean extracts-induced apoptosis,[1]; 48 h,approximately 42%
same,inhibition of fermented soybean extracts-induced apoptosis,[1]; 72 h,~60%
same,inhibition of fermented soybean extracts-induced apoptosis,[2]; 48 h,approximately 45%
same,inhibition of fermented soybean extracts-induced apoptosis,[2]; 72 h,~52%
